From patent publication US9518107B2, “Pharmaceutical compositions containing polypeptides derived from α-1 antitrypsin and methods of use thereof” (YISSUM RESEARCH DEVELOPMENT COMPANY OF THE HEBREW …, priority 2010, dated 2016)

Columns and labels:
arthritic mice = assay: Collagen type II induced arthritis, joint swelling; type: in vivo; settings: 1 μg/kg thrice a week, from five days after second immunization; FIG. 16
Description: Chick collagen type II (2.0 mg) was incubated overnight in 0.01 M acetic acid (0.9 ml) at 4° C. The resulting solution was emulsified with equal volume (1.0 ml) of […] Freund's Adjuvant containing 5.0 mg heat-killed Mycobacterium tuberculosis. Thereafter, the animal was injected intradermally in the tail base with 100 μl of the emulsion and an additional immunization was repeated 21 days later. Five days later, UBE or UBE1 polypeptide were administered (1 μg/kg thrice a week). The animals were evaluated for the difference in joint thickness (mm) between the indicated time intervals and prior to immunization.

Female C57BL/6 mice = assay: Experimental autoimmune encephalitis (EAE), MOG 35-55 induced, neurological score; type: in vivo; settings: for neurological symptoms (neurological score 0 to 6): i.p. 1 μg/kg, thrice a week, from four days after MOG immunization, FIG. 3
Description: Female C57BL/6 mice were injected subcutaneously into 4 sites on the back, adjacent to each of the forelimbs and hindlimbs (total amount 200 μl) with a myelin oligodendritic glycoprotein (MOG) 35-55 fragment emulsified with complete Freund's adjuvant. Thereafter, each animal was i.p. injected with pertusis toxin (PTX; 200 ng/mouse) in PBS and an additional
PTX injection was repeated 2 days later, which is a standard protocol for initiating experimental autoimmune encephalomyelitis (EAE) in mice. UBE polypeptide (SEQ ID NO:2) was intraperitoneally (i.p.) injected (0.3 μg/kg, thrice a week) five days after MOG immunization (day of onset of symptoms). The animals were evaluated for neurological score from 0 (no effect) to 6 (severe neurological symptoms including paralysis). Results are the mean±SE of neurological score (sum of all scores divided by the number of animals in each experimental group) at each of the indicated time intervals after MOG injection.
Female C57BL/6 mice were injected subcutaneously into 4 sites on the back, adjacent to each of the forelimbs and hindlimbs (total amount 200 μl) with a myelin oligodendritic glycoprotein (MOG) 35-55 fragment emulsified with complete Freund's adjuvant. Thereafter, each animal was i.p. injected with pertusis toxin (PTX; 200 ng/mouse) in PBS and an additional PTX injection was repeated 2 days later. Four days after MOG immunization, each mouse received i.p. injections (1 μg/kg, thrice a week) of each of the following polypeptides:
The animals were evaluated for neurological score from 0 (no effect) to 6 (severe neurological symptoms including paralysis). Results are the mean±SE of neurological score (sum of all scores divided by the number of animals in each experimental group) at each of the indicated time intervals after immunization.

severe sepsis = settings: decrease from about 31% without treatment; further trials failed to replicate; cited from earlier work

YSMPPIVRFDHPFLFIIFEEHTQSPLFVGKVVDPTHK (listed as Mus musculus) [UBE1, peptide corresponding to residues 377-413 of Mus musculus alpha-1-antitrypsin (serpin a1c)]
joint swelling (difference in joint thickness) (arthritic mice): reduction in joint swelling
neurological damage in animal models of multiple sclerosis (Female C57BL/6 mice; summary statement, b192 (FIG. 3) does not name UBE1): highly effective in eliminating neurological damage

SMPPIVRFDHPFLFIIFEEHTQSPLFVGKVVDPTH (listed as Mus musculus) [UBE-C, peptide corresponding to residues 378-412 of Mus musculus alpha-1-antitrypsin (serpin a1c)]
neurological symptoms (neurological score 0 to 6) (Female C57BL/6 mice): reduced the neurological symptoms

MPPIVRFDHPFLFIIFEEHTQSPLFVGKVVDPTHK (listed as Mus musculus) [UBE-N, peptide corresponding to residues 379-413 of Mus musculus alpha-1-antitrypsin (serpin a1c)]
neurological symptoms (neurological score 0 to 6) (Female C57BL/6 mice): reduced the neurological symptoms

drotrecogin alfa
mortality in severe sepsis (severe sepsis): about 25%
